Test results published in publication PMC6272295, “In Vitro Neuroprotective Activities of Compounds from Angelica shikokiana Makino” (Molecules, 2015).
Read-outs that look alike come from different tables or passages of the source.

Experiments:
[1] = Scavenging of hydroxyl radical, 2-deoxyribose degradation assay; on Hydroxyl Radical Scavenging (grade): key: +: Weak activity; ++: Strong activity
Method: The inhibitory effect of bioactive compounds on deoxyribose degradation was determined by measuring the competition between deoxyribose and bioactive compounds for the hydroxyl radicals (^.OH) generated from the Fe^3+/ascorbate/EDTA/H2O2 system (referred to non-site-specific assay; the major activity measured is ^.OH scavenging) or an Fe^3+/ascorbate/H2O2 system (referred to as a site-specific assay; major activity measured is metal chelation). Both assays depend on the formation of a highly reactive hydroxyl radical, OH, by the interaction of iron ions with H2O2 through Fenton’s reaction. […] This assay was performed as previously described. Different concentrations of tested compounds were dissolved in 400 µL phosphate buffer (0.2 M, pH 7.4). Then, 50 µL of deoxyribose (60 mM), 50 µL of Na2EDTA (2 mM), 50 µL of FeCl3 (3.2 mM), 50 µL of H2O2 (60 mM) and 50 µL of ascorbic acid (2 mM) were added, and the total volume of the reaction mixture was adjusted to 1 mL with buffer. After water-bath incubation at 50 °C for 25 min, the reaction was terminated by 250 µL of trichloroacetic acid (10%, w/w). […] For site-specific hydroxyl-radical-scavenging activity, the reaction mixture was similar to the above method, except that EDTA was replaced by an equivalent volume of buffer.
IC50 values of isolated compounds in AChEI and scavenging of hydroxyl radical assays were calculated using Probit Analysis (SPSS Version 16.0 for Windows, SPSS Inc., Chicago, IL, USA) for five different concentrations in three independent experiments. Cell viability was expressed as a percentage of MTT reduction, assuming that the viability of cells treated with 1% DMSO as a negative control was 100%. […] All values are the mean ± SD of three independent experiments. Data were analyzed for statistical significance using one-way ANOVA, followed by Dunnet’s test as a post-hoc test with GraphPad Prism 5.0 software for Windows (Inc., San Diego, CA, USA).

neuro-2A cells = assay: Protection against H2O2-induced neurotoxicity (MTT); format: cell-based, Mouse; settings: for neuroprotection against H2O2-induced neurotoxicity (in words): 6.25-100 µM, H2O2 150 µM; for Protection against H2O2: summary Table 4
Method: Neuro-2A cell line was maintained in Eagle’s Minimum Essential medium supplemented with 10% fetal bovine serum, 1% of 100× antibiotic—antimitotic agents (containing penicillin and streptomycin) in a humid atmosphere of 5% (v/v) CO2 and 95% (v/v) air at 37 °C. Neuro-2A cells were plated in 96-well cell culture plates at a density of 3 × 10^4 cells/well for H2O2 and intracellular ROS assays and 2.5 × 10^3 cells/well for the Aβ25-35-assay.
Cell viability was determined by MTT reduction assay. Briefly, after treatment with isolated compounds, the media was replaced by fresh one after washing the cells with 100 µL PBS and 20 µL of MTT (5 mg/mL) was added to each well. After 4 h incubation at 37 °C, the state of cells was checked under microscope to confirm either cytotoxicity in H2O2 and Aβ25-35 wells or protection in positive controls and isolated compounds ones. The supernatants were aspirated carefully, and 150 µL of DMSO was added to each well to dissolve the dark blue formazan crystals. The absorbance was measured using a microplate reader at 570 nm.
H2O2 interacts with metals in the medium, producing highly cytotoxic hydroxyl radicals that induce neurotoxicity. So, active compounds are those that can scavenge free radicals and increase the cell viability. This assay was performed as previously described with slight modifications. Briefly, the concentration of H2O2 that decreased cell viability to about 50% was determined as follows: cells were cultured in a 96-well plate and after 24 h were further incubated with different concentrations of H2O2 (50, 100, 150, 200 µM) freshly prepared from 30% stock solution. After 24 h, cell viability was determined using the MTT reduction method. H2O2 at a concentration of 150 µM had the desired cytotoxicity and was used for the next step.

[2] = Fe3+/ascorbate/EDTA/H2O2 system, read-out: IC50 hydroxyl radical scavenging, Non Site-Specific
[3] = Fe3+/ascorbate/H2O2 system without EDTA, read-out: IC50 hydroxyl radical scavenging, Site-Specific
[4] = summary Table 4 (values of the non site-specific assay), read-out: Hydroxyl Radical Scavenging/IC50

Row | SMILES | % Inhibition of deoxyribose degradation, Non Site-Specific ([1]; at 300 µM (maximum solubility in phosphate buffer)) | Hydroxyl Radical Scavenging (grade) ([1]; summary Table 4) | neuroprotection against H2O2-induced neurotoxicity (in words) (neuro-2A cells) | Protection against H2O2 (neuro-2A cells) | IC50 [1, 2] | IC50 [1, 3] | IC50 [1, 4]
1 | CC(=O)OC1c2c(ccc3ccc(=O)oc23)OC(C)(C)C1OC(=O)C(C)(O)C(C)O (centres unmarked) [Hyuganin E (6), hyuganin E] | 37.5 ± 3.5% | + | significant (p < 0.05) increase in cell viability at 100 µM | + |  |  | 
2 | O=c1c(O)c(-c2ccc(O)cc2)oc2cc(O)cc(O)c12 [Kaempferol (8), kaempferol] |  |  | significant (p < 0.05) increase in cell viability at 100 µM | + | 720 ± 7.9 µM | 901 ± 17.9 µM | 720 ± 7.9 µM
3 | O=c1c(OC2OC(CO)C(O)C(O)C2O)c(-c2ccc(O)cc2)oc2cc(O)cc(O)c12 (centres unmarked) [Kaempferol-3-O-glucoside (13), kaempferol-3-O-glucoside] |  |  | significant (p < 0.05) increase in cell viability at 100 µM | + | 1150 ± 6.7 µM | 1300 ± 24.3 µM | 1150 ± 6.7 µM
